Data published in patent publication US9642851B2, “Indolinone derivative as tyrosine kinase inhibitor” (KBP Biosciences Co., Ltd., priority 2012, dated 2017).
Counter-ions that a name gives are not always drawn.

Tests used:
FGFR1 = target: T1, FGFR1 (Homo sapiens, UniProt P11362); test: In vitro enzymology inhibitory activity (Caliper mobility shift kinase assay); type: biochemical; conditions: reaction 1 hour at 28° C., FAM-labelled peptide and ATP
T1 construct: purchased Carna
Protocol: (§1) • (1) Preparation of agents and compounds • (1) 1-fold kinase buffer without MnCl2 (50 mM HEPES, pH=7.5, 0.0015% Brij-35, 10 mM MgCl2, 2 mM DTT) • (2) 1-fold kinase buffer with MnCl2 (50 mM HEPES, pH=7.5, 0.0015% Brij-35, 10 mM MgCl2, 10 mM MnCl2, 2 mM DTT); • (3) Termination solution (100 mM HEPES, pH=7.5, 0.015% Brij-35, 0.2% Coating Reagent #3, 50 mM EDTA); • (4) 2.5-fold kinase solution (the VEGFR2, FGFR1, FGFR3, PDGFRβ kinases were added to the 1-fold kinase buffer respectively to prepare the corresponding 2.5-fold kinase solutions); • (5) 2.5-fold substrate solution: FAM-labelled peptide and ATP were added to the 1-fold kinase buffer to prepare a peptide solution; • (6) 4-fold dilution of the compound solution: the compound was accurately weighed, and dissolved in DMSO. The mixture was mixed sufficiently and evenly to prepare a 10 mM solution. Then the solution was diluted with DMSO to 500 μM, and 4-fold serial dilutions were done at 10 concentrations with a highest concentration of 50μM.
(§2) The calculated inhibition ratio (%)=(max. conversion−sample conversion)/(max. conversion−min. conversion)×100
(§3) The curve fitting was done with the software Xlfit to obtain the IC50 value.

FGFR3 = target: T2, FGFR3 (Homo sapiens, UniProt P22607); test: as above; type: biochemical; conditions: reaction 1 hour at 28° C., FAM-labelled peptide and ATP
T2 construct: purchased Carna
Protocol: as §1, §2, §3

PDGFRβ = target: T3, PDGFRβ (Homo sapiens, UniProt P09619); test: as above; type: biochemical; conditions: reaction 5 hour at 28° C., FAM-labelled peptide and ATP
T3 construct: purchased BPS
Protocol: as §1, §2, §3

VEGFR2 = target: T4, VEGFR2 (Homo sapiens, UniProt P35968); test: as above; type: biochemical; conditions: reaction 1 hour at 28° C., FAM-labelled peptide and ATP
T4 construct: purchased Carna
Protocol: as §1, §2, §3

HUVEC cells = test: In vitro cellular inhibitory activity, h-VEGF-A stimulated HUVEC proliferation; type: cell-based; conditions: Homo sapiens, h-VEGF-A 10 ng/ml, incubated for 89 hours, absorbance at 490 nm, read-out: ED50 for the HUVEC in vitro cells
Protocol: (§4) (1) Thawing cells and Passing cells.
(§5) The 3T3 cells were resuspended in a culture medium containing 10% fetal bovine serum, wherein the cell concentration was 5×10^4/ml. The cell suspension was added to a 96-well plate with 100 μL per well, and incubated overnight; the HUVEC cells were resuspended in a culture medium containing 10% heat-inactivated fetal bovine serum, wherein the cell concentration was 7.5×10^4/ml. The cell suspension was added to a 96-well plate with 100 μL per well. • (3) Treating with drugs: the compounds were diluted to different concentrations, and 60 μLh-PDGF-BB (3T3 cells) and 40 ng/ml h-VEGF-A (HUVEC cells) were added and incubated for 1 hour. • (4) 100 μL of a solution containing the compound and h-PDGF-BB (h-VEGF-A, for the HUVEC cells) was added to a cell culture plate, wherein the final concentration of h-PDGF-BB was 10 ng/ml, the final concentration of h-VEGF-A was 10 ng/ml, and the final concentration for the compounds were 10, 3.3333, 1.1111, 0.3704, 0.1235, 0.0412, 0.0137, 0.0046, and 0.0015 μM. The plate was incubated for 40 hours, and the HUVEC cells were incubated for 89 hours. To each well was added 20 μL Promega Substrate, and the plate was incubated at 37° C. for 7.5 hours, and the HUVEC cells were incubated for 11.5 hours. Then the plate was placed in a microplate reader to read the absorbance at 490 nm. • (5) Data processing
(§6) The curve of the compound concentration vs. Net OD was plotted, wherein Net OD=Compound OD−min. OD. ED50 was calculated according to the following equation: Conc. ED50(x)=(y−b)/a, y=Calculated Net OD for IC50, a=slope, b=intercept.

3T3 cells = test: In vitro cellular inhibitory activity, h-PDGF-BB stimulated 3T3 proliferation; type: cell-based; conditions: Mus musculus, NIH3T3; h-PDGF-BB 10 ng/ml, incubated for 40 hours, absorbance at 490 nm; read-out: ED50 for the 3T3 in vitro cells
Protocol: as §4, §5, §6

T2 sequence (P22607 23-806): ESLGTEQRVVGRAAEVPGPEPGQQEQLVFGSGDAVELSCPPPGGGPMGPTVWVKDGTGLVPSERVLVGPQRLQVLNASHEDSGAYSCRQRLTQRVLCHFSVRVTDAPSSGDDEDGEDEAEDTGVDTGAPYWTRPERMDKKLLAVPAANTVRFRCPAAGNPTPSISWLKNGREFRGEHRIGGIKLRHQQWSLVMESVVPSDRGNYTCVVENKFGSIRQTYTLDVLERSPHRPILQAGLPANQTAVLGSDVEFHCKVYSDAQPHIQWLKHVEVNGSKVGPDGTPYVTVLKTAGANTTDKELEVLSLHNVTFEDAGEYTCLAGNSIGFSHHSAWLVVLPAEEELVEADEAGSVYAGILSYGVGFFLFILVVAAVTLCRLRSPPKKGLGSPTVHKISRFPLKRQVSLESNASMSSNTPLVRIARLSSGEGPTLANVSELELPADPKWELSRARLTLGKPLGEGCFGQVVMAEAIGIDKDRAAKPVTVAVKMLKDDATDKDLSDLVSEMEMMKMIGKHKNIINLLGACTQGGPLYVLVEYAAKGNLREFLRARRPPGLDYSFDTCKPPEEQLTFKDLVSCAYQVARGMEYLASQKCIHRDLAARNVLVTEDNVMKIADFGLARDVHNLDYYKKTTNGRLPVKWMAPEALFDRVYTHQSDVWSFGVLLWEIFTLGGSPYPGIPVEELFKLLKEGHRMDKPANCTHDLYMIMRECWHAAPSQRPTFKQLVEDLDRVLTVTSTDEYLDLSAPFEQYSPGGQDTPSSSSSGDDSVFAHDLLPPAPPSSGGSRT
T1 sequence (P11362 22-822): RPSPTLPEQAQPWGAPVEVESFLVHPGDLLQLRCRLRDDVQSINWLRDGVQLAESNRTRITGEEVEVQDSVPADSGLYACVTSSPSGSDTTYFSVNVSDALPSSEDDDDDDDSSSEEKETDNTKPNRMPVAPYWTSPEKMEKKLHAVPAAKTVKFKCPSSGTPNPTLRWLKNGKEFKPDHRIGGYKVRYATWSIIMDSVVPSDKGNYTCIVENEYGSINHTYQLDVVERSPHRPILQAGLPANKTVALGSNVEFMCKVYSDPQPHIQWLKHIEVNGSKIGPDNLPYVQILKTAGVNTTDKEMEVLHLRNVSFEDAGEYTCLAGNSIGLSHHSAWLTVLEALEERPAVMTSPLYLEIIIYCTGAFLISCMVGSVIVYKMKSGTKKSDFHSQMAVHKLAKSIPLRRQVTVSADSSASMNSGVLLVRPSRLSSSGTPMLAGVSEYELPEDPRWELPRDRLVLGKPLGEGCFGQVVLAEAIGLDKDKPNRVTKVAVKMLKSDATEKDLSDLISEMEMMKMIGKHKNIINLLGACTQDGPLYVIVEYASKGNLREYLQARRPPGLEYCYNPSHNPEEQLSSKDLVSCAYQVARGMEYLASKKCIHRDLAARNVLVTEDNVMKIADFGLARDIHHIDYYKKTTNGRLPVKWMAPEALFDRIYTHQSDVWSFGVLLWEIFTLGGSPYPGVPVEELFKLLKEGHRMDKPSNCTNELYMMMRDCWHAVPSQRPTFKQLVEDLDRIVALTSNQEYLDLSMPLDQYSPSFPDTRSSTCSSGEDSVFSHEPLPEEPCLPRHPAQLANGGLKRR
T4 sequence (P35968 20-1356): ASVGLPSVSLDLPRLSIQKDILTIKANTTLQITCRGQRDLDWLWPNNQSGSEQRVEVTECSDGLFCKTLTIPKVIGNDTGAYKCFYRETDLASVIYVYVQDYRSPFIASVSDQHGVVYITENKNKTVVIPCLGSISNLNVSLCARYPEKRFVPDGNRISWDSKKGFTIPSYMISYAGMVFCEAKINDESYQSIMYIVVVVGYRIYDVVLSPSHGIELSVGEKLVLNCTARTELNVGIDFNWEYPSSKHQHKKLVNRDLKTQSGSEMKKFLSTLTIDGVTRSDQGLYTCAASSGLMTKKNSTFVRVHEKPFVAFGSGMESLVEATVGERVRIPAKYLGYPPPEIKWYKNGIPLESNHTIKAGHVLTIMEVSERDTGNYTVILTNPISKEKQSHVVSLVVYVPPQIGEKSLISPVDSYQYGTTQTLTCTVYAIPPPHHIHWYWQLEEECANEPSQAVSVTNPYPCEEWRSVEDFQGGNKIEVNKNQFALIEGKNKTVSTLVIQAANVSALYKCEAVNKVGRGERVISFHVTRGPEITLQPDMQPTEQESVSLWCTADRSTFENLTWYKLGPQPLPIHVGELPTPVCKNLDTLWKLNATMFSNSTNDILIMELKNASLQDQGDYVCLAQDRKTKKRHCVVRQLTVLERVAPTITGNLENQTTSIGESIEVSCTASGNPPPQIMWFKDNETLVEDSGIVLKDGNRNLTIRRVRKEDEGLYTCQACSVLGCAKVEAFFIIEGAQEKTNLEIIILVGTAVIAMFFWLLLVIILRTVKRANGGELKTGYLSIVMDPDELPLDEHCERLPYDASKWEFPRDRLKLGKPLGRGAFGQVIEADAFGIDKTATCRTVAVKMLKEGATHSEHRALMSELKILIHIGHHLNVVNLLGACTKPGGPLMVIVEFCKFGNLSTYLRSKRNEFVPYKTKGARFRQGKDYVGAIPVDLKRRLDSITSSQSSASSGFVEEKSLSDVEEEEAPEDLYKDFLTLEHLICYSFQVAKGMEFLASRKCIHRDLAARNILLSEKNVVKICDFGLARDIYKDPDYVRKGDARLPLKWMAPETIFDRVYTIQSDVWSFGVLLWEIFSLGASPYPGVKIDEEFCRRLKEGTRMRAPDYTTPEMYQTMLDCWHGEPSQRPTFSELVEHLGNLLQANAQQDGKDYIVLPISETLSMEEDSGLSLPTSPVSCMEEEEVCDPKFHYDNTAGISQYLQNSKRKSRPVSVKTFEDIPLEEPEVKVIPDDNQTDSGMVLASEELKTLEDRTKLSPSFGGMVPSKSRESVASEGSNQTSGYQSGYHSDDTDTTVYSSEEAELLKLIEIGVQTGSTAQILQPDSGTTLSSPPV
T3 sequence (P09619 33-1106): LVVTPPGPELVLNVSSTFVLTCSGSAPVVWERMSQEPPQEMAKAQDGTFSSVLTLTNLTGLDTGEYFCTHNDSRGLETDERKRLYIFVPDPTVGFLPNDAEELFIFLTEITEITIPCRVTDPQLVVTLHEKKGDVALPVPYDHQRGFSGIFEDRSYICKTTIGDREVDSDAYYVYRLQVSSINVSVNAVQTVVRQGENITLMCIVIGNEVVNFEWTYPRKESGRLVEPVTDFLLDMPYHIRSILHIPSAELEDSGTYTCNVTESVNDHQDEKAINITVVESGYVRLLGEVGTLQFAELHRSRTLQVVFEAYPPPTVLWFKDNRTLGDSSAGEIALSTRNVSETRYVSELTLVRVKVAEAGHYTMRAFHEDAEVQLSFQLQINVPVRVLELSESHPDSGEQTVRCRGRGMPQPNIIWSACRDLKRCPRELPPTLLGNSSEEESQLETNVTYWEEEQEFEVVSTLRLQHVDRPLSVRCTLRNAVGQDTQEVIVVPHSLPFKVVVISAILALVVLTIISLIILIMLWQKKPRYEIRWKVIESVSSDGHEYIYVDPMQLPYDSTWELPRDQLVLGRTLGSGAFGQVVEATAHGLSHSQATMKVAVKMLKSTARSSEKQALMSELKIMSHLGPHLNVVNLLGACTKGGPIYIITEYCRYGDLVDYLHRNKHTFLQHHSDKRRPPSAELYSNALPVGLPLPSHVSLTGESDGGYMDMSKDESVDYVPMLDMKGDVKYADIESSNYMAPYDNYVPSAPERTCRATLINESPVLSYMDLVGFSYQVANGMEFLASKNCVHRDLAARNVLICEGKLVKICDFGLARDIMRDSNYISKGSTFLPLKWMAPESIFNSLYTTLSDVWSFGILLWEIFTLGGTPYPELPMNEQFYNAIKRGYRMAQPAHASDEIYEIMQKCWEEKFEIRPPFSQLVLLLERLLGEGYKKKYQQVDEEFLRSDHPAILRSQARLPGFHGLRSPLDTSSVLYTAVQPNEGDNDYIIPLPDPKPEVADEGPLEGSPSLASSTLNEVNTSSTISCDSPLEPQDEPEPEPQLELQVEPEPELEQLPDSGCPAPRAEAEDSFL

IC50 (FGFR1) | IC50 (FGFR3) | IC50 (PDGFRβ) | IC50 (VEGFR2) | Structure (SMILES) | EC50 (HUVEC cells) | EC50 (3T3 cells)
100 nM | 230 nM | 7.6 nM | 17 nM | COC(=O)c1ccc2c(c1)NC(=O)/C2=C(\Nc1ccc2c(c1)CCN2C(=O)CN1CCN(C)CC1)c1ccccc1 [Compound 1] | 56 to 84 nM | 60 to 80 nM
 | 280 nM | 15 nM |  | COC(=O)c1ccc2c(c1)NC(=O)/C2=C(\Nc1ccc2c(c1)CCN2C(=O)CN(C)C)c1ccccc1 [Compound 2 hydrochloride, methyl(Z)-3-((1-(2-(dimethylamino)acetyl)indolin-5-ylamino)(phenyl)methylene)-2oxoindoline-6-carboxylate hydrochloride] |  | 
 |  |  |  | COC(=O)c1ccc2c(c1)NC(=O)/C2=C(\Nc1ccc2c(c1)CCN2C(=O)CN1CCN(C)CC1)c1ccc(F)cc1 [Compound 3] | 180 to 260 nM | 1300 to 1900 nM
 |  |  |  | COC(=O)c1ccc2c(c1)NC(=O)/C2=C(\Nc1ccc2c(c1)CCN2C(=O)CC1CCN(C)CC1)c1ccccc1 [Compound 5] | 100 to 150 nM | 820 to 1240 nM
 |  |  |  | COC(=O)c1ccc2c(c1)NC(=O)/C2=C(\Nc1ccc2c(c1)CCN2C(=O)CN1CCOCC1)c1ccccc1 [Compound 7 hydrochloride] |  | 50 to 70 nM
 | 9800 nM | 85 nM | 770 nM | COC(=O)c1ccc2c(c1)NC(=O)/C2=C(\Nc1ccc2c(c1)CCN2C(=O)CN1CCOCC1)c1ccc(F)cc1 [Compound 9 hydrochloride, methyl(Z)-3-((4-fluorophenyl)(1-(2-morpholinylacetyl)indolin-5-ylamino)methylene)-2-oxoindoline-6-carboxylate] | 130 to 190 nM | 
7960 nM | 5300 nM | 65 nM | 630 nM | CCOC(=O)c1ccc2c(c1)NC(=O)/C2=C(\Nc1ccc2c(c1)CCN2C(=O)CN1CCOCC1)c1ccccc1 [Compound 10 hydrochloride, ethyl(Z)-3-((1-(2-morpholinylacetyl)indolin-5-ylamino)(phenyl)methylene)-2-oxoindoline-6-carboxylate] | 90 to 140 nM | 
 | 1720 nM | 19 nM |  | COC(=O)c1ccc2c(c1)NC(=O)/C2=C(\Nc1ccc2c(c1)CCN2C(=O)CN1CCCC1=O)c1ccccc1 [Compound 12 hydrochloride, methyl(Z)-3-((1-(2-(2-pyrrolidon-1-yl)acetyl)indolin-5-ylamino)(phenyl)methylene)-2-oxoindoline-6-carboxylate] | 20 to 30 nM | 
700 nM | 540 nM | 14 nM |  | COC(=O)c1ccc2c(c1)NC(=O)/C2=C(\Nc1ccc2c(c1)CCN2C(=O)Cn1cncn1)c1ccccc1 [Compound 13 hydrochloride, methyl(Z)-3-((1-(2-(1H-1,2,4-triazol-1-yl)acetyl)indolin-5-ylamino)(phenyl)methylene)-2-oxoindoline-6-carboxylate] | 60 to 90 nM | 
 | 4020 nM | 24 nM |  | COC(=O)c1ccc2c(c1)NC(=O)/C2=C(\Nc1ccc2c(c1)CCN2C(=O)Cn1cccn1)c1ccccc1 [Compound 14 hydrochloride, methyl(Z)-3-((1-(2-(1H-pyrazol-1-yl)acetyl)indolin-5-ylamino)(phenyl)methylene)-2-oxoindoline-6-carboxylate] | 70 to 100 nM | 
